What was measured:
[1] = Determination of log D7.4 (1-octanol / Tris-HCl buffer); assay type: physicochemical; conditions: 1-octanol / 20 mM Tris-HCl buffer containing 150 mM NaCl (pH = 7.4) (1/1, v/v)
Summary of the method: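 Ligand partitioned between 1-octanol and 20 mM Tris-HCl pH 7.4 with 150 mM NaCl: vortexed 3 min at ambient temperature, centrifuged, each phase quantified by UV-visible spectrophotometry. log D7.4 is log of octanol/buffer concentration ratio, measured three times.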

[2] = molecular target: T1, copper complexes of Aβ1-42 peptide (Homo sapiens, UniProt P05067); test: Stability of H2O2 during the H2O2 production inhibition experiments (known amount of H2O2 added); assay type: biochemical; conditions: Aβ1-42 0.2 μM, Cu(II) 0.4 μM, ascorbate 10 μM, ligand 0.4 μM
T1 construct: The β-amyloid peptide Aβ1-42 (Aβ1-42) was synthesised, purified (to a purity greater than 95%); made in house; host or cells: chemical peptide synthesis (no expression host)
T1 sequence (P05067 672-713 limits assumed, one chain of several): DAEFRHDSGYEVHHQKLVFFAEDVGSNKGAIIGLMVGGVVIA
Experimental: (§1) The final concentrations are given. The reactions were carried out in the dark in mM sodium phosphate buffer (pH=7.4). Aβ1-42 (0.2 μM) and CuCl2 (0.4 μM) were pre-incubated for 1 hour at 37° C. while stirring at 1,400 rpm in 375 μl of buffer. Then 2 μl of a solution of ligand to be investigated (0.2; 0.4 or 0.8 μM) in DMSO were added. After incubation for a further hour, 2 μl of an aqueous sodium ascorbate solution (10 μM) were added and incubation was continued for 5 min while stirring. The amount of H2O2 produced is then quantified using an Amplex Red H2O2/HRP Assay Kit (Molecular Probes) while adding a volume of assay reagent to the samples, then incubating them for 1 hour at 37° C. while stirring at 500 rpm. H2O2 is then detected by spectrophotometry at 563 nm. Quantification is carried out on the basis of standard curves obtained with known amounts of H2O2.
(§2) Experiments were also carried out in the presence of a known amount of H2O2, added just before or just after the addition of sodium ascorbate, in order to investigate the stability of H2O2 under the experimental conditions employed.

[3] = system: copper complexes of Aβ1-42 peptide; test: as above; assay type: biochemical; conditions: for theoretical value of H2O2 if there is no degradation (in parentheses): ascorbate, ligand; for H2O2 assayed: no Aβ1-42, Cu(II) 0.4 μM, ligand 0.4 μM
Experimental: as §1, §2

Aβ1-42 = molecular target: T2, Aβ1-42 (Homo sapiens, UniProt P05067); test: Inhibition of the precipitation of Aβ1-42 by the addition of ligand (Micro BCA assay of soluble/aggregated peptide); assay type: biochemical; conditions: Aβ1-42 5 μM, pH 7.4; for CuCl2 % soluble Aβ: 20 μM CuCl2, 1 h 37° C. then 1 h with 200 μM ligand; for FeCl3 % soluble Aβ: 20 μM FeCl3, 1 h 37° C. then 1 h with 200 μM ligand; for ZnCl2 % soluble Aβ: 20 μM ZnCl2, 1 h 37° C. then 1 h with 200 μM ligand; for without metal % soluble Aβ: no metal salt, 1 h 37° C. then 1 h with 200 μM ligand
T2 construct: The β-amyloid peptide Aβ1-42 (Aβ1-42) was synthesised, purified (to a purity greater than 95%); made in house; host or cells: chemical peptide synthesis (no expression host)
T2 sequence (P05067 672-713): as the sequence (P05067 672-713 limits assumed, one chain of several) above
Summary of the method: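 Aβ1-42 (5 μM) pre-aggregated 1 h at 37 °C with stirring in 20 mM Tris-HCl/150 mM NaCl pH 7.4, with or without CuCl2, ZnCl2 or FeCl3 (20 μM). Ligand (200 μM, DMSO) added, 1 further hour at 37 °C; after centrifugation, peptide in supernatant and pellet quantified by Micro BCA against BSA standards.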

[4] = 3.0 nanomoles H2O2 added just after ascorbate
[5] = Aβ1-42 0.2 μM, Cu(II), 3.0 nanomoles H2O2 added just after ascorbate

| SMILES | logD at 3 min [1] | H2O2 assayed [2, 4] | H2O2 assayed ([2]; no H2O2 added) | theoretical value of H2O2 if there is no degradation (in parentheses) [3, 5] | CuCl2 % soluble Aβ (Aβ1-42) | FeCl3 % soluble Aβ (Aβ1-42) | ZnCl2 % soluble Aβ (Aβ1-42) | without metal % soluble Aβ (Aβ1-42) | H2O2 assayed ([2]; 3.0 nanomoles H2O2 added just before the ascorbate) | theoretical value of H2O2 if there is no degradation (in parentheses) ([3]; Aβ1-42 0.2 μM, Cu(II), 3.0 nanomoles H2O2 added just before the ascorbate) | H2O2 assayed ([3]; ascorbate 10 μM, 3.0 nanomoles H2O2 added just after ascorbate) | H2O2 assayed ([3]; ascorbate 10 μM, no H2O2 added) | H2O2 assayed ([3]; no ascorbate, 3.0 nanomoles H2O2 added) | theoretical value of H2O2 if there is no degradation (in parentheses) ([3]; no Aβ1-42, Cu(II), 3.0 nanomoles H2O2 added just after ascorbate) | log D7.4 [1] | degradation of added H2O2 ([3]; Table 7 conditions) |
| --- | --- | --- | --- | --- | --- | --- | --- | --- | --- | --- | --- | --- | --- | --- | --- | --- |
| CC(C)(c1ccc2c(Cl)ccc(O)c2n1)c1ccc2c(Cl)ccc(O)c2n1 [Compound 4, 2,2′-(2,2-Propanediyl)-bis(5-chloro-8-hydroxyquinoline)] | 4.9 ± 0.1 | 3.3 nmol | 0.37 ± 0.09 nmol | 3.4 nmol | 30% | 45% | 49% | 55% |  |  |  |  |  |  |  |  |
| CC(C)(c1ccc2cccc(O)c2n1)c1ccc2cccc(O)c2n1 [Compound 3, 2,2′-(2,2-propanediyl)-bis(8-hydroxyquinoline)] | 4.4 ± 0.1 | 3.7 (3.7) nanomoles | 0.71 ± 0.02 nmol | 3.7 (3.7) nanomoles | 47 ± 3% | 60% | 59% | 56% | 3.8 nmol | 3.7 nmol | 3.8 (3.8) nanomoles | 0.84 nmol | 3.1 nmol | 3.8 (3.8) nanomoles |  |  |
| O=C(c1ccc2cccc(O)c2n1)c1ccc2cccc(O)c2n1 [Compound 6, Bis(8-hydroxy-2-quinoline)methanone] |  | 3.6 nmol | 0.87 ± 0.11 nmol | 3.9 nmol | 58 ± 3% | 51% | 54% | 56% |  |  |  |  |  |  | 3.9 ± 0.1 |  |
| c1cnc2c(Nc3cccc4cccnc34)cccc2c1 [Compound 12, Bis(8-quinoline)amine] |  | 1.7 nmol | 0.47 ± 0.09 nmol | 3.4 nmol | 69 ± 2% | 59% | 52% | 69% |  |  |  |  |  |  | 3.5 ± 0.1 | none of the added H2O2 is found again |
| Oc1cccc2ccc(C(F)(F)c3ccc4cccc(O)c4n3)nc12 [Compound 5, 2,2′-(Difluoromethanediyl)-bis(8-hydroxyquinoline)] | 3.8 ± 0.1 | 3.4 nmol | 0.55 ± 0.08 nmol | 3.5 nmol | 51 ± 1% | 52% | 50% | 60% |  |  |  |  |  |  |  |  |

Source: patent US20120277265A1, “NOVEL POLYQUINOLINE DERIVATIVES AND THE THERAPEUTIC USE THEREOF” (CENTRE NATIONAL DE LA RECHERCHE SCIENTIFIQUE (C.N.R.S.), priority 2005, published 2012)
